Values of other authors, collected in article PMC12424150 (Drug Delivery, 2025).

Columns and labels:
[1] = ref Dhillon [2018]
[2] = parameters: method as in Wharton et al. [2023]; Lingvay et al. [2024]; conditions: ref Wharton et al. [2023]; Lingvay et al. [2024]

Compound	half-life in humans [1] [h]	average weight loss [2]
CC[C@H](C)[C@H](NC(=O)[C@H](Cc1ccccc1)NC(=O)[C@H](CCC(=O)O)NC(=O)[C@H](CCCCNC(=O)COCCOCCNC(=O)COCCOCCNC(=O)CC[C@H](NC(=O)CCCCCCCCCCCCCCCCC(=O)O)C(=O)O)NC(=O)[C@H](C)NC(=O)[C@H](C)NC(=O)[C@H](CCC(N)=O)NC(=O)CNC(=O)[C@H](CCC(=O)O)NC(=O)[C@H](CC(C)C)NC(=O)[C@H](Cc1ccc(O)cc1)NC(=O)[C@H](CO)NC(=O)[C@H](CO)NC(=O)[C@@H](NC(=O)[C@H](CC(=O)O)NC(=O)[C@H](CO)NC(=O)[C@@H](NC(=O)[C@H](Cc1ccccc1)NC(=O)[C@@H](NC(=O)CNC(=O)[C@H](CCC(=O)O)NC(=O)C(C)(C)NC(=O)[C@@H](N)Cc1cnc[nH]1)[C@@H](C)O)[C@@H](C)O)C(C)C)C(=O)N[C@@H](C)C(=O)N[C@@H](Cc1c[nH]c2ccccc12)C(=O)N[C@@H](CC(C)C)C(=O)N[C@H](C(=O)N[C@@H](CCCNC(=N)N)C(=O)NCC(=O)N[C@@H](CCCNC(=N)N)C(=O)NCC(=O)O)C(C)C [semaglutide]	165 to 183	
Glucagon-like peptide-1 [GLP-1]		up to 15%
